Entries after “also recorded” stand apart in the source; their conditions may differ.
What was measured:
[1] = system: fibronectin protein expression in MRC-5 cells; assay: Western blot of fibronectin after lipid-mediated delivery of anti-fibrotic HJT-sRNA into TGF-β1 stimulated MRC-5 cells; assay type: cell-based; settings: nucleic acid 400 nM; TGF-β1 3 ng/mL; preparation method not given; FIG. 102
Procedure: 3.3.1 MRC-5 cell (pulmonary embryonic fibroblast), and A549 cell (human lung adenocarcinoma cell) were cultured to logarithmic growth phase, and then plated into 12-well plates at a cell density of 6×10^5/1 mL medium/well; MRC-5 cells were cultured in Eagle's MEM medium (MEM, Gibco); A549 cells were cultured in Ham's F-12 medium (HyClone); followed by incubation overnight at 37° C., and the follow-up experiments were performed after the cells were attached to the walls.
4) Lipid nucleic acid mixture: the mixture of lipid and nucleic acid prepared from the step 2 were added into cells and mixed, and the final concentration of nucleic acid was 400 nM.
3.3.3 After 24 hours of treatment, the cells were stimulated with the stimulant (1 μg/mL poly (I:C) (P1530, Sigma-Aldrich) as double-stranded RNA viruses mimetics) or 3 ng/mL transforming growth factor TGFβ1 (Pepro Tech)). […]

[2] = system: A549 cell; assay: RT-qPCR detection of nucleic acid delivered by lipid into A549 cells; assay type: cell-based, human; settings: double-stranded HJT-sRNA-m7 100 nM; reverse evaporation method; 12 hours; FIG. 99
Procedure: 3.1 NCI-N87 cell (gastric cancer cell), MRC-5 cell (lung fibroblast), A549 cell (lung cancer cell) were cultured to logarithmic growth phase, and then plated to a six-well plate at cell density of 1×10^6/2 mL medium/well; MRC-5 cell was cultured in Eagle's MEM medium (MEM, Gibco); A549 cell was cultured in Ham's F-12 medium (HyClone); NCI-N87 cell was cultured in RPMI-1640 medium (HyClone); followed by incubation overnight at 37° C., and the follow-up experiments were performed after the cells were attached to the walls.
4) Lipid nucleic acid mixture: the mixture of lipid and HJT-sRNA-m7 prepared from the step 2 were added into cells and mixed, and the final concentration of RNA was kept at 200 nM.
3.3 After co-incubation with the small RNA for 3 hours, the cells were washed 2-3 times with PBS. The cells were harvested with TRIzol lysis buffer, and the total RNA was extracted. The abundance of small RNA that entered cells was detected by RT-qPCR, and the localization of RNA was detected by fluorescence in situ hybridization; protocols of each detection method were as follows:
3.3.1 RT-qPCR Detection of Small RNA (Taqman Probe Method)
3.3.2 RT-qPCR Detection of Small RNA (SYBR Green Dye Method)
Mixtures of soybean PC, lipid No. 11 (18:0/18:2) and lipid No. 12 (16:0/18:2), and various small RNA (see below Table 3) were prepared by the reverse evaporation method and then added into A549 cell line (the final concentration of sRNA was 200 nM); the negative control group (control) was directly added with the same concentration of sRNA; the positive control group (RNAimax) was transfected with Lipofectamine RNAimax (transfection reagent 6 μl/well). The abundance of sRNA in the cells was detected by Taqman probe after 3 hours, and the relative expression level of sRNA was calculated by 2-ΔCt method.
3.1.3 After co-incubation with cells for 12-24 hours, the cells were washed twice with PBS. The cells were harvested with TRIzol lysis buffer (purchased from Sigma-Aldrich), and total RNA was extracted. The abundance of HJT-sRNA-m7 that entered the cells was detected by RT-qPCR; the protocols were as follows:
4368813) was used to reverse transcribe sRNA to cDNA by stem-loop method (see, e.g. Real-time quantification of microRNAs by stem-loop RT-PCR, Nucleic Acids Res. 2005 Nov. 27; 33(20):e179, incorporated by reference herein).

[3] = In vivo delivery of single-stranded sRNA by single lipid via gavage (blood, stomach, small intestine, liver); design: species or system C57 mice; settings: 10 μl lipid, 1 nmol each sRNA (PGY-sRNA-23/-26/-32), heating method, 6 hours or 12 hours after administration
Text: Tissues sampled: live/stomach/small intestine.

[4] = system: A549 cells; assay: Digital PCR (ddPCR) detection of the efficiency of nucleic acid delivery by lipid; assay type: cell-based, human
Procedure: 2.2 Experimental method: the total cellular RNA was collected and extracted by TRIzol lysis buffer according to the above methods, and reverse transcribed to cDNA using High capacity cRNA Reverse Transcription Kit, and the cDNA from different groups was subject to digital PCR reaction. Refering to the QX200 Droplet Reader and QuantaSoft Software manual for the protocols, the results were analyzed using QuantaSoft software.
2.2 Experimental method: total RNA was collected and extracted by TRIzol lysis buffer according to the above method, and reverse transcribed to cDNA using High capacity cRNA Reverse Transcription Kit, and the cDNA from different groups was subjected to digital PCR reaction. Refer to the QX200 Droplet Reader and QuantaSoft Software manual for the protocols; the results were analyzed using QuantaSoft software.
2.2 Experimental method: Total RNA was collected and extracted by TRIzol lysis buffer according to the above method, and reverse transcribed to cDNA using TaqMan™ MicroRNA Reverse Transcription KitHigh, and the cDNA from different groups was subjected to digital PCR reaction. Refer to the QX200 Droplet Reader and QuantaSoft Software manual for the protocols; the results were analyzed using QuantaSoft software.
2.2 Experimental method: Total RNA was collected and extracted by TRIzol lysis buffer according to the above method, and reversed to cDNA using High capacity cRNA Reverse Transcription Kit, and the cDNA from different groups was subjected to digital PCR reaction. Refer to the QX200 Droplet Reader and QuantaSoft Software manual for the protocols; the results were analyzed using QuantaSoft software.

[5] = system: A549 cells; assay: Confocal fluorescence microscopy of nucleic acid delivered by lipid in cells; assay type: cell-based, human; settings: 4 μl lipid, boiling method; 6 hours of co-incubation
Procedure: Experimental materials: A549 cells (purchased from the Cell Center of the Chinese Academy of Medical Sciences), PGY-sRNA-6-Cy3 (purchased from Ribobio Biotechnology Co., Ltd.), lipid No. 41, Zeiss LSM780 (purchased from Zeiss, Germany), Alexa Fluor® 488 phalloidin (purchased from Invitrogen, USA), DAPI (purchased from Invitrogen, USA), paraformaldehyde (purchased from sigma, USA).
Experimental methods: PGY-sRNA-6-FAM was dissolved in 100 μl water, mixed with 4 μl lipid, and prepared by the boiling method. Then the mixture was dropped into A549 cells, and after 6 hours of co-incubation, the samples were washed three times with PBS, fixed with 4% paraformaldehyde, washed three times with PBS, stained with Alexa Fluor® 488 phalloidin for 30 min, washed 3 times with PBS, and stained with DAPI for 5 min, washed with PBS, and then sealed.
Experimental method: PGY-sRNA-6-FAM was dissolved in 100 μl water, and mixed with 4 μl lipid, and prepared by boiling method. Then, the mixture was dropped into A549 cells, and after 6 hours of co-incubation, the samples were washed three times with PBS, fixed with 4% paraformaldehyde, washed three times with PBS, stained with Alexa Fluor® 488 phalloidin for 30 min, washed 3 times with PBS, and stained with DAPI for 5 min, PBS washed, and then sealed.

CCCCCCCC/C=C\CCCCCCCCCCCC(=O)O[C@H](COC(=O)CCCCCCCCCCCCCCC)COP(=O)(O)OCCN [No. 40, (2-aminoethoxy)[(2R)-2-[(13Z)-docos-13-enoyloxy]-3-(hexadecanoyloxy)propoxy]phosphinic acid]
fibronectin protein expression after delivery of double-stranded HJT-sRNA-m7 (Western blot) [1]: to down-regulate fibronectin protein expression
delivery effect relative to RNAiMAX (real-time PCR) [2]: ½
entry of single-stranded small RNA into mouse blood (RT-qPCR) [3]: could effectively deliver sRNA single-stranded nucleic acid into mouse blood via oral administration; also recorded: the delivery effect was better than POPC and Lipofectamine RNAiMAX
delivery of HJT-sRNA-m7 dsRNA (ddPCR) ([4]; boiling method, 6 hours): could effectively deliver HJT-sRNA-m7 dsRNA into A549 cells
delivery of HJT-sRNA-m7 dsRNA (ddPCR) ([4]; reverse evaporation method, 6 hours (No. 39: 6 hours, 12 hours)): could effectively deliver HJT-sRNA-m7 dsRNA into A549 cells
entry of PGY-sRNA-6-Cy3 observed under the confocal microscopy [5]: could effectively deliver single-stranded RNA into A549 cells

From patent US20210108198A1, “APPLICATION OF COMPOUND OR TRADITIONAL CHINESE MEDICINE EXTRACT IN PREPARATION OF NUCLEIC ACID DELIVERY AGENT AND RELATED PRODUCTS THEREOF” (INSTITUTE OF BASIC MEDICAL SCIENCES CHINESE ACADEMY OF …, priority 2017, published 2021)
